Each structure is given as a SMILES string. Some results are limits rather than exact numbers.

What is called IC50 is the concentration that inhibits the measured activity by half.

Chain of Prostaglandin G/H synthase 1 (P23219 whole entry): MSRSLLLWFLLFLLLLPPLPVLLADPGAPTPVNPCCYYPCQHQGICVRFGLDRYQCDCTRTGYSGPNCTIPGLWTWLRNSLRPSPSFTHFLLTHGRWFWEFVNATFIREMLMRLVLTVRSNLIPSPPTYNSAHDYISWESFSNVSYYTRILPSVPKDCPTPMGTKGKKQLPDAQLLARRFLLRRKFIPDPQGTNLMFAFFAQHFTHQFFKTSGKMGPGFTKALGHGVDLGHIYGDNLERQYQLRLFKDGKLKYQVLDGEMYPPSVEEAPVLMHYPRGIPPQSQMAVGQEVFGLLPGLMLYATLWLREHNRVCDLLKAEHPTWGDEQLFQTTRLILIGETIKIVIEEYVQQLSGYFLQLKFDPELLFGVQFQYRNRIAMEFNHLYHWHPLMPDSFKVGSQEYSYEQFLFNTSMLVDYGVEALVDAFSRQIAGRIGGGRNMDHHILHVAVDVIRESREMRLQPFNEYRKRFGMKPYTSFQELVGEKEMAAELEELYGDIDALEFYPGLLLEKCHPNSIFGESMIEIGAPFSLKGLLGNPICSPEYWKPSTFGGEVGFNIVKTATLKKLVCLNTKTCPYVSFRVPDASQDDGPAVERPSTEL

The first test addresses Prostaglandin G/H synthase 1 (Homo sapiens, UniProt P23219).
The compound `Cc1ccc(N2C(=O)CSC2c2ccc(S(C)(=O)=O)cc2)cc1` (configuration not stated) had a concentration for half-maximal inhibition (IC50) of 53900 nM.

`COc1ccc(N2C(=O)CSC2c2ccc(S(C)(=O)=O)cc2)cc1` (configuration not stated) registered an IC50 above 100000 nM.

For the compound `CS(=O)(=O)c1ccc(C2SCC(=O)N2c2ccccc2)cc1` (configuration not stated), the IC50 was 96100 nM.

As to `CS(=O)(=O)c1ccc(C2SCC(=O)N2c2ccc(F)cc2)cc1` (configuration not stated), the IC50 was above 100000 nM.

Another test has as its target T1, Prostaglandin G/H synthase 2 (Homo sapiens, UniProt P35354).
T1 sequence (P35354 whole entry): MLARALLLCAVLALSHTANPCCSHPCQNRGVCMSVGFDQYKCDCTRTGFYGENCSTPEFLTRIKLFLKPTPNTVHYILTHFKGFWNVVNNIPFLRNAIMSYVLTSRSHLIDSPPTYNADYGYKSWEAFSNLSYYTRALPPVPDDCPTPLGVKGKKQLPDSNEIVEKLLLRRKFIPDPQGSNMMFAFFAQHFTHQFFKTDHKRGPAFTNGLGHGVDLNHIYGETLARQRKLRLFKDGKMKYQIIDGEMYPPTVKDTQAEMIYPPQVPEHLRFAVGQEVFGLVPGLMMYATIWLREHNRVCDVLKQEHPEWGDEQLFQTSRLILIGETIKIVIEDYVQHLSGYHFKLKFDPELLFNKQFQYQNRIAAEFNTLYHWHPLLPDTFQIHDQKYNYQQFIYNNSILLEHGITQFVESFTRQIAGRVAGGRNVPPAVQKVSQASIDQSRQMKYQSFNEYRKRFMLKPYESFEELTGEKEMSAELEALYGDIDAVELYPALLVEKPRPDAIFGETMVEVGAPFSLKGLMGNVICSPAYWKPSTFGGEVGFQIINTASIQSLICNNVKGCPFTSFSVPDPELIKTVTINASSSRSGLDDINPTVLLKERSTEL
In turn, `Cc1ccc(N2C(=O)CSC2c2ccc(S(C)(=O)=O)cc2)cc1` (configuration not stated) registered an IC50 of 150 nM.

In the case of `COc1ccc(N2C(=O)CSC2c2ccc(S(C)(=O)=O)cc2)cc1` (configuration not stated), half-maximal inhibition (IC50) required 160 nM.

Regarding `CS(=O)(=O)c1ccc(C2SCC(=O)N2c2ccccc2)cc1` (configuration not stated), inhibition was half-maximal at 200 nM (IC50).

`CS(=O)(=O)c1ccc(C2SCC(=O)N2c2ccc(F)cc2)cc1` (configuration not stated) displayed an IC50 of 120 nM.

The species entered for another test is Homo sapiens. Put plainly: Selectivity index, ratio of IC50 for […].
With `Cc1ccc(N2C(=O)CSC2c2ccc(S(C)(=O)=O)cc2)cc1` (configuration not stated), the Ratio IC50 came to 359.

Take `COc1ccc(N2C(=O)CSC2c2ccc(S(C)(=O)=O)cc2)cc1` (configuration not stated): the Ratio IC50 is above 625.

With `CS(=O)(=O)c1ccc(C2SCC(=O)N2c2ccccc2)cc1` (configuration not stated), the Ratio IC50 was 480.

Consider `CS(=O)(=O)c1ccc(C2SCC(=O)N2c2ccc(F)cc2)cc1` (configuration not stated), for which the Ratio IC50 is above 833.

The values are drawn from ChEMBL document CHEMBL1139828, “Synthesis of 2,3-diaryl-1,3-thiazolidine-4-one derivatives as selective cyclooxygenase (COX-2) inhibitors” (Bioorg Med Chem Lett, 2007).
